Test results from the NIST ThermoML archive (doi:10.1016/j.jct.2015.10.026).
Numbers after ± are expanded uncertainties.

Experiment: mn = molality of the nth substance listed, in mol/kg
Conditions: 100 kPa, Liquid; for viscosity: Capillary tube (Ostwald / Ubbelohde) method; for electrical conductivity: Direct current cell with electrodes; for mass density: Vibrating tube method

CCCCn1cc[n+](C)c1.NCCS(=O)(=O)[O-] [1-butyl-3-methylimidazolium taurate] + O
Conditions | electrical conductivity [S/m] | mass density [kg/m3] | viscosity [mPa·s]
293.15 K, m1 = 0.00165 | 0.0072 ± 0.0008 | – | –
293.15 K, m1 = 0.00227 | 0.0097 ± 0.0008 | – | –
293.15 K, m1 = 0.00341 | 0.0142 ± 0.0009 | – | –
293.15 K, m1 = 0.00511 | 0.0205 ± 0.001 | 998.36 ± 1.6 | –
293.15 K, m1 = 0.00752 | 0.0293 ± 0.0011 | 998.46 ± 1.6 | –
293.15 K, m1 = 0.00917 | – | 998.52 ± 1.6 | –
293.15 K, m1 = 0.01078 | 0.0403 ± 0.0014 | 998.59 ± 1.6 | 1.034 ± 0.022
293.15 K, m1 = 0.01261 | 0.0464 ± 0.0015 | 998.67 ± 1.6 | 1.038 ± 0.022
293.15 K, m1 = 0.01552 | 0.0552 ± 0.0018 | 998.81 ± 1.6 | 1.043 ± 0.022
293.15 K, m1 = 0.01938 | 0.0668 ± 0.0021 | 999 ± 1.6 | 1.05 ± 0.022
293.15 K, m1 = 0.02239 | 0.0757 ± 0.0023 | 999.16 ± 1.6 | –
293.15 K, m1 = 0.02555 | – | 999.33 ± 1.6 | 1.06 ± 0.022
293.15 K, m1 = 0.02746 | – | 999.43 ± 1.6 | –
293.15 K, m1 = 0.03626 | – | – | 1.074 ± 0.022
293.15 K, m1 = 0.05001 | – | – | 1.093 ± 0.023
293.15 K, m1 = 0.0693 | – | – | 1.117 ± 0.023
293.15 K, m1 = 0.08462 | – | – | 1.133 ± 0.024
298.15 K, m1 = 0.00165 | 0.0089 ± 0.0011 | – | –
298.15 K, m1 = 0.00227 | 0.0121 ± 0.0011 | – | –
298.15 K, m1 = 0.00341 | 0.0177 ± 0.0011 | – | –
298.15 K, m1 = 0.00511 | 0.0257 ± 0.0012 | 997.16 ± 1.6 | –
298.15 K, m1 = 0.00752 | 0.0365 ± 0.0014 | 997.24 ± 1.6 | –
298.15 K, m1 = 0.00917 | – | 997.3 ± 1.6 | –
298.15 K, m1 = 0.01078 | 0.0498 ± 0.0017 | 997.36 ± 1.6 | 0.925 ± 0.019
298.15 K, m1 = 0.01261 | 0.0571 ± 0.0019 | 997.43 ± 1.6 | 0.928 ± 0.019
298.15 K, m1 = 0.01552 | 0.0684 ± 0.0022 | 997.56 ± 1.6 | 0.934 ± 0.019
298.15 K, m1 = 0.01938 | 0.0824 ± 0.0026 | 997.74 ± 1.6 | 0.94 ± 0.02
298.15 K, m1 = 0.02239 | 0.0922 ± 0.0028 | 997.89 ± 1.6 | –
298.15 K, m1 = 0.02555 | – | 998.06 ± 1.6 | 0.95 ± 0.02
298.15 K, m1 = 0.02746 | – | 998.16 ± 1.6 | –
298.15 K, m1 = 0.03626 | – | – | 0.965 ± 0.02
298.15 K, m1 = 0.05001 | – | – | 0.981 ± 0.02
298.15 K, m1 = 0.0693 | – | – | 1.004 ± 0.021
298.15 K, m1 = 0.08462 | – | – | 1.018 ± 0.021
303.15 K, m1 = 0.00165 | 0.0104 ± 0.0012 | – | –
303.15 K, m1 = 0.00227 | 0.0141 ± 0.0012 | – | –
303.15 K, m1 = 0.00341 | 0.0206 ± 0.0013 | – | –
303.15 K, m1 = 0.00511 | 0.0299 ± 0.0014 | 995.73 ± 1.6 | –
303.15 K, m1 = 0.00752 | 0.0425 ± 0.0016 | 995.79 ± 1.6 | –
303.15 K, m1 = 0.00917 | – | 995.83 ± 1.6 | –
303.15 K, m1 = 0.01078 | 0.0587 ± 0.002 | 995.88 ± 1.6 | 0.835 ± 0.017
303.15 K, m1 = 0.01261 | 0.0675 ± 0.0022 | 995.94 ± 1.6 | 0.838 ± 0.017
303.15 K, m1 = 0.01552 | 0.0805 ± 0.0026 | 996.06 ± 1.6 | 0.844 ± 0.018
303.15 K, m1 = 0.01938 | 0.0965 ± 0.003 | 996.22 ± 1.6 | 0.85 ± 0.018
303.15 K, m1 = 0.02239 | 0.107 ± 0.0033 | 996.37 ± 1.6 | –
303.15 K, m1 = 0.02555 | – | 996.53 ± 1.6 | 0.86 ± 0.018
303.15 K, m1 = 0.02746 | – | 996.63 ± 1.6 | –
303.15 K, m1 = 0.03626 | – | – | 0.874 ± 0.018
303.15 K, m1 = 0.05001 | – | – | 0.89 ± 0.019
303.15 K, m1 = 0.0693 | – | – | 0.911 ± 0.019
303.15 K, m1 = 0.08462 | – | – | 0.925 ± 0.019
308.15 K, m1 = 0.00165 | 0.0119 ± 0.0014 | – | –
308.15 K, m1 = 0.00227 | 0.0161 ± 0.0014 | – | –
308.15 K, m1 = 0.00341 | 0.0237 ± 0.0015 | – | –
308.15 K, m1 = 0.00511 | 0.0344 ± 0.0016 | 994.08 ± 1.6 | –
308.15 K, m1 = 0.00752 | 0.0488 ± 0.0019 | 994.12 ± 1.6 | –
308.15 K, m1 = 0.00917 | – | 994.15 ± 1.6 | –
308.15 K, m1 = 0.01078 | 0.067 ± 0.0023 | 994.19 ± 1.6 | 0.76 ± 0.016
308.15 K, m1 = 0.01261 | 0.0772 ± 0.0025 | 994.24 ± 1.6 | 0.764 ± 0.016
308.15 K, m1 = 0.01552 | 0.092 ± 0.0029 | 994.34 ± 1.6 | 0.77 ± 0.016
308.15 K, m1 = 0.01938 | 0.111 ± 0.0035 | 994.48 ± 1.6 | 0.776 ± 0.016
308.15 K, m1 = 0.02239 | 0.123 ± 0.0038 | 994.63 ± 1.6 | –
308.15 K, m1 = 0.02555 | – | 994.78 ± 1.6 | 0.786 ± 0.016
308.15 K, m1 = 0.02746 | – | 994.88 ± 1.6 | –
308.15 K, m1 = 0.03626 | – | – | 0.801 ± 0.017
308.15 K, m1 = 0.05001 | – | – | 0.817 ± 0.017
308.15 K, m1 = 0.0693 | – | – | 0.837 ± 0.017
308.15 K, m1 = 0.08462 | – | – | 0.851 ± 0.018
313.15 K, m1 = 0.00165 | 0.0135 ± 0.0016 | – | –
313.15 K, m1 = 0.00227 | 0.0182 ± 0.0016 | – | –
313.15 K, m1 = 0.00341 | 0.0265 ± 0.0016 | – | –
313.15 K, m1 = 0.00511 | 0.0385 ± 0.0018 | 992.21 ± 1.6 | –
313.15 K, m1 = 0.00752 | 0.0544 ± 0.0021 | 992.23 ± 1.6 | –
313.15 K, m1 = 0.00917 | – | 992.26 ± 1.6 | –
313.15 K, m1 = 0.01078 | 0.0749 ± 0.0026 | 992.29 ± 1.6 | 0.698 ± 0.015
313.15 K, m1 = 0.01261 | 0.0858 ± 0.0028 | 992.34 ± 1.6 | 0.702 ± 0.015
313.15 K, m1 = 0.01552 | 0.102 ± 0.0032 | 992.42 ± 1.6 | 0.708 ± 0.015
313.15 K, m1 = 0.01938 | 0.121 ± 0.0038 | 992.55 ± 1.6 | 0.715 ± 0.015
313.15 K, m1 = 0.02239 | 0.134 ± 0.0041 | 992.67 ± 1.6 | –
313.15 K, m1 = 0.02555 | – | 992.8 ± 1.6 | 0.725 ± 0.015
313.15 K, m1 = 0.02746 | – | 992.88 ± 1.6 | –
313.15 K, m1 = 0.03626 | – | – | 0.74 ± 0.015
313.15 K, m1 = 0.05001 | – | – | 0.757 ± 0.016
313.15 K, m1 = 0.0693 | – | – | 0.779 ± 0.016
313.15 K, m1 = 0.08462 | – | – | 0.793 ± 0.017
